Reference: patent US20200061035A1 (Heron Therapeutics, Inc., priority 2016, published 2020)

Assays:
[1] = Pharmacokinetic analysis of granisetron and olanzapine formulation in canines (plasma concentration by LC/MS/MS); assay type: in vivo; settings: both sexes, dog, dogs, same formulation, approx. 5 mg granisetron, read-out: Average Plasma Concentrations of Granisetron
Description: Plasma samples were taken from each dog at the following time points: 0, 0.5, 1, 3, 6, 8, 24, 48, 72, 96, 120 hours, and frozen.

[2] = cited from earlier work

SMILES	concentration at 0.5 h ([1]; 0.5 hrs)	concentration at 1 h ([1]; 1 hr)	concentration at 3 h ([1]; 3 hrs)	concentration at 6 h ([1]; 6 hrs)	concentration at 8 h ([1]; 8 hrs)	concentration at 24 h ([1]; 24 hrs)	concentration at 48 h ([1]; 48 hrs)	concentration at 72 h ([1]; 72 hrs)	concentration at 96 h ([1]; 96 hrs)	concentration at 120 h ([1]; 120 hrs)	Solubility in water [2]
CN1C2CCCC1CC(NC(=O)c1nn(C)c3ccccc13)C2 (centres unmarked) [Granisetron, granisetron]	11.7 ng/mL	14.3 ng/mL	14.2 ng/mL	10.7 ng/mL	8.02 ng/mL	6.82 ng/mL	3.27 ng/mL	1.54 ng/mL	0.95 ng/mL	0.4 ng/mL	–
Cc1cc2c(s1)Nc1ccccc1N=C2N1CCN(C)CC1 [Olanzapine, 2-methyl-10-(4-methyl-1-piperazinyl)-4H-thieno[2,3-b][1,5]benzodiazepine]	–	–	–	–	–	–	–	–	–	–	practically insoluble
